Patent JP2009062322A, “肝実質細胞再生促進剤” (Minophagen Pharmaceutical Co Ltd, priority 2007, dated 2009)

Test system: primary cultured hepatic parenchymal cells (初代培養肝実質細胞)
Test: Proliferation of primary cultured rat hepatic parenchymal cells: DNA synthesis (3H-thymidine incorporation) and number of nuclei
Details: for EC50: Rattus norvegicus; for proliferation-promoting effect: compound alone, low-density culture, 4 h, result in words

SMILES	EC50	proliferation-promoting effect	proliferation-promoting effect relative to glycyrrhetinic acid (by EC50) (fold stronger than glycyrrhetinic acid (グリチルレチン酸), by EC50 value)
C[C@]1(C(=O)O)CC[C@]2(C)CC[C@]3(C)C(=CC[C@@H]4[C@@]5(C)CC[C@H](O)[C@](C)(CO)[C@@H]5CC[C@]43C)[C@@H]2C1 [化合物(12)]	4 nM	用量依存的に促進効果を示した	
CC1(C)[C@@H](O)CC[C@]2(C)[C@H]3CC=C4[C@@H]5C[C@@](C)(C(=O)O)CC[C@]5(C)CC[C@@]4(C)[C@]3(C)CC[C@@H]12 [化合物(11), 11−デオキソグリチルレチン酸]	0.04 nM	用量依存的に促進効果を示した	~100 倍 (fold)
CC1(C)[C@@H](O)CC[C@]2(C)[C@H]3C(=O)C=C4[C@@H]5C[C@@](C)(C(=O)O)CC[C@]5(C)CC[C@@]4(C)[C@]3(C)CC[C@@H]12 [グリチルレチン酸, reference compound]	5 nM	用量依存的に促進効果を示した	
